# Measurements taken from patent EP3693362B1, “PARASITIC PLANT GERMINATION REGULATOR” (National University Corporation Tokai National Higher …, priority 2017, dated 2019).
# Assays:
# Assay type in all cases: in vivo
# Striga hermonthica = experiment: Parasitic plant germination induction test (Striga hermonthica seeds); conditions: in the dark for 2 days; for Germination rate 0.1 nM: compound concentration 0.1 nM; for Germination rate 1 nM: compound concentration 1 nM; for Germination rate 10 nM: compound concentration 10 nM
# Experimental: (§1) A parasitic plant germination induction test was conducted using the compounds synthesized in Example 1 as test compounds. The seeds of a parasitic plant (Striga hermonthica, Orobanche minor, or Phelipanche aegyptiaca) were suspended in sterilized ultrapure water, and this was dispensed in an amount of 100 µL each (containing about 20 seeds) into a 96-well plate. The test compounds or control compounds (Comparison Compound 1 or synthetic Strigolactone (GR^24: Comparison Compound 2)) dissolved in DMSO were individually added thereto to a final concentration of these compounds of 10 nM to 1 fM (1 × 10^-8 to 1 × 10^-15 M), and allowed to stand in the dark for 2 days. The presence or absence of germination was observed using a microscope, and the germination rate (i.e., number of germinated seeds/total number of seeds) was measured. The higher the germination rate in the parasitic plant germination induction test, or the higher the germination rate at lower concentration, the higher the Striga germination inducing activity.
# (§2) In Tables 1 to 6, the concentrations (10 nM, 1 nM, and 0.1 nM) represent compound concentrations. In Tables 1-6, the evaluation criteria for the compounds are as follows: • ++: germination rate of 20% or more • +: germination rate of 5% or more and less than 20% • -: germination rate of less than 5% Table 1
# Phelipanche aegyptiaca = experiment: Parasitic plant germination induction test (Phelipanche aegyptiaca seeds); conditions: in the dark for 2 days
# Experimental: as §1, §2
# Orobanche minor = experiment: Parasitic plant germination induction test (Orobanche minor seeds); conditions: in the dark for 2 days
# Experimental: as §1, §2
SMILES,Germination rate 0.1 nM (Striga hermonthica),Germination rate 1 nM (Striga hermonthica),Germination rate 10 nM (Striga hermonthica),Germination rate 1 nM (Phelipanche aegyptiaca; compound concentration 1 nM),Germination rate 10 nM (Phelipanche aegyptiaca; compound concentration 10 nM),Germination rate 0.1 nM (Orobanche minor; compound concentration 0.1 nM),Germination rate 1 nM (Orobanche minor; compound concentration 1 nM),Germination rate 10 nM (Orobanche minor; compound concentration 10 nM)
CCCCOc1ccc(S(=O)(=O)N2CCN(C(=O)OC3C=C(C)C(=O)O3)CC2)cc1 (centres unmarked) [Compound 1],++ (germination rate of 20% or more),++ (germination rate of 20% or more),++ (germination rate of 20% or more),- (germination rate of less than 5%),+ (germination rate of 5% or more and less than 20%),- (germination rate of less than 5%),++ (germination rate of 20% or more),++ (germination rate of 20% or more)
CCCCOc1ccc(S(=O)(=O)N2CCN(C(=O)OC3C=CC(=O)O3)CC2)cc1 (centres unmarked) [Compound 13],+ (germination rate of 5% or more and less than 20%),++ (germination rate of 20% or more),++ (germination rate of 20% or more),,,,,
"CC1=CC(OC(=O)NCc2ccccc2)OC1=O (centres unmarked) [Comparison Compound 1, reference compound]",- (germination rate of less than 5%),- (germination rate of less than 5%),- (germination rate of less than 5%),,,,,
